{"source": "patent US20230381163A1", "about": "“DABIGATRAN COMPOSITIONS AND METHODS OF TREATING AGE-RELATED MACULAR DEGENERATION” (The United States Government As Represented By The …, priority 2022, published 2023)", "key": {"[1]": {"settings": "dabigatran chow, ˜10 mg/kg bodyweight per day; cited from earlier work"}, "[2]": {"tested_on": "C3d and C5b-9 deposition on ARPE-19 cells", "assay": "C3d and MAC (C5b-9) deposition on ARPE-19 cell surfaces (immunofluorescence)", "settings": "10 μM, compared with thrombin-treated cells (20 U/mL)", "method": "ARPE-19 cells were grown on transwell membranes in 6 well plates (Thurman, J. M., et al. (2009). J Biol Chem 284, 16939-16947), treated with thrombin and inhibitors, and fixed in 4% paraformaldehyde for 15 min at room temperature. Primary antibodies against C5b-9 (1:200, Abcam) and C3d (1:100) (Thurman, J. M., et al. (2013). J Clin Invest 123, 2218-2230) were diluted in blocking buffer (10% normal goat serum, 3% BSA, 0.4% Triton X-100 in PBS) and cells were incubated for overnight at 4° C., followed by washes and incubation with goat anti-rabbit Alexa Fluor® 568—conjugated IgG or donkey anti-goat Alexa Fluor® 488-conjugated secondary antibodies (1:500; Thermo Fisher Scientific), respectively. Nuclei were identified with DAPI (Sigma-Aldrich). Transwell membranes were covered with aqua-mount mounting media (Thermo Scientific), cover slipped and photographed (Olympus 1X73 Research Inverted Microscope equipped with cellSens imaging software).\nFirst, it was tested whether thrombin results in deposition of C3d and the assembly of MAC on ARPE-19 cell surfaces. ARPE-19 cell monolayers were treated apically with thrombin and deposition of MAC (C5b-9; red) and C3d (green) were examined by immunofluorescence staining (FIG. 4A)."}, "[3]": {"tested_on": "AMD diagnosis in Medicare patients", "assay": "MarketScan retrospective analysis of AMD diagnosis in dabigatran-exposed vs matched control Medicare patients", "assay_type": "in vivo, human", "source_text": "Material and methods. MarketScan analysis: Population. A total of 41,860 dabigatran-exposed and 41,860 non-exposed controls, for a total of 83,720 Medicare patients were extracted from MarketScan® data from 2010-2015 and used in the analysis. Patients with an inpatient or outpatient record with a diagnosis of AMD (wet or dry) for the baseline period were excluded from inclusion in the data set. Patients who filled at least one prescription of dabigatran during the 2011-2012 exposure period were included in the dabigatran group. The date of the first filled prescription was designated as the Index Date. […] The first patient record date in randomly selected records from 2011 or 2012 was chosen as the Index Date for control group patients. Patients with <90 days of insurance coverage in the baseline period or <120 days of coverage in the study (exposure) period were excluded from the final cohort. The exposed and control patients were matched by age, sex, state of residence, Index Date, days in baseline period, and days in study period using 1:1 propensity score mating with a greedy algorithm and a caliper distance of 0.2.\nSurvival and Statistical Analysis. Survival analysis was used (Schnabolk et al., 2019) to show differences in time until AMD diagnosis among dabigatran users and control subjects using the […] procedure. AMD diagnoses were identified using ICD-9 codes 362.5 (unspecified macular degeneration), 362.51 (dry AMD), and 362.52 (wet AMD). A period of ˜5 years (from Jul. 1, 2010, to Dec. 31, 2015) was used for this analysis, and preexisting AMD diagnosis was ruled out by requiring that the subjects be AMD free over the first ˜600 days (designated as baseline days or Base Days). Data on the matched control and dabigatran population were analyzed using multivariable logistic and Cox regression. Specifically, the odds of being diagnosed with AMD during the follow-up time, controlling for days of dabigatran exposure, and the proportional hazard rates of obtaining an AMD diagnosis in the dabigatran or control population as well as any baseline differences in demographics or comorbidities was compared (Charlson or Elixhouser diagnoses).\nResults. Association between Dabigatran Use and AMD Risk. The patient population consisted of 83,720 Medicare patients extracted from MarketScan® data from 2010-2015 as described herein, with 41,860 dabigatran-exposed and 41,860 non-exposed controls. The controls were matched on 33 baseline variables, including demographics and clinical characteristics (Schnabolk, G., et al. (2019). Invest Ophthalmol Vis Sci 60, 3520-3526) (Table 1)."}, "[4]": {"tested_on": "VEGF", "assay": "VEGF levels in RPE/choroid of CNV mice (western blot)", "assay_type": "in vivo, mouse", "source_text": "(§1) Pathway analysis in CNV. Based on the results in cells, an analysis in animals followed, focusing on VEGF levels in the RPE/choroid, complemented by CTGF analysis and complement activation (C3d production and binding). RPE/choroid samples were collected at the end of the angiogenesis experiment (day 6) and after the final OCT analysis in the repair experiment (day 23) and compared to naive controls (no CNV and no dabigatran treatment)."}, "[5]": {"tested_on": "C3α breakdown products C3d/C3dg and C3α′1", "assay": "Complement activation (C3d) in RPE/choroid of CNV mice (western blot)", "assay_type": "in vivo, mouse", "source_text": "as §1\nUnexpectedly, and in contrast to the cell data (FIG. 4), C3d deposition was not reduced by dabigatran."}, "[6]": {"settings": "1-2 years exposure to dabigatran"}, "[7]": {"settings": "2+ years exposure to dabigatran"}}, "data": [{"smiles": "CCCCCCOC(=O)NC(=N)c1ccc(NCc2nc3cc(C(=O)N(CCC(=O)OCC)c4ccccn4)ccc3n2C)cc1", "values": [{"measurement": "blood plasma concentration of dabigatran", "setting": "[1]", "result": "372 ± 30", "unit": "ng/mL"}, {"measurement": "elongation of coagulation times", "setting": "[1]", "result": 3, "unit": "fold"}, {"measurement": "reduction of C5b-9 deposition", "setting": "[2]", "result": "~50", "unit": "%"}, {"measurement": "reduction of C3d deposition", "setting": "[2]", "result": "~60", "unit": "%"}, {"measurement": "% AMD per study year", "setting": "[3]; [6]", "result": 3.25, "unit": "%"}, {"measurement": "% patients with a wet AMD diagnosis", "setting": "[3]; [6]", "result": 0.90, "unit": "%"}, {"measurement": "% patients with an AMD diagnosis", "setting": "[3]; [6]", "result": 10.11, "unit": "%"}, {"measurement": "% wet AMD per study year", "setting": "[3]; [6]", "result": 0.26, "unit": "%"}, {"measurement": "risk of AMD by exposure strata (odds ratio vs controls)", "setting": "[3]; 1-2 years of dabigatran", "result": 0.64}, {"measurement": "% AMD per study year", "setting": "[3]; [7]", "result": 3.00, "unit": "%"}, {"measurement": "% patients with a wet AMD diagnosis", "setting": "[3]; [7]", "result": 1.35, "unit": "%"}, {"measurement": "% patients with an AMD diagnosis", "setting": "[3]; [7]", "result": 12.26, "unit": "%"}, {"measurement": "% wet AMD per study year", "setting": "[3]; [7]", "result": 0.29, "unit": "%"}, {"measurement": "risk of AMD by exposure strata (odds ratio vs controls)", "setting": "[3]; 2+ years of dabigatran", "result": 0.64}, {"measurement": "% AMD per study year", "setting": "[3]; <1 year exposure to dabigatran", "result": 3.04, "unit": "%"}, {"measurement": "% patients with a wet AMD diagnosis", "setting": "[3]; <1 year exposure to dabigatran", "result": 0.75, "unit": "%"}, {"measurement": "% patients with an AMD diagnosis", "setting": "[3]; <1 year exposure to dabigatran", "result": 7.51, "unit": "%"}, {"measurement": "% wet AMD per study year", "setting": "[3]; <1 year exposure to dabigatran", "result": 0.28, "unit": "%"}, {"measurement": "risk of AMD by exposure strata (odds ratio vs controls)", "setting": "[3]; <1 year of dabigatran", "result": 0.52}, {"measurement": "% AMD per study year", "setting": "[3]; all dabigatran users", "result": 3.07, "unit": "%"}, {"measurement": "% patients with a wet AMD diagnosis", "setting": "[3]; all dabigatran users", "result": 0.91, "unit": "%"}, {"measurement": "% patients with an AMD diagnosis", "setting": "[3]; all dabigatran users", "result": 9.1, "unit": "%"}, {"measurement": "% wet AMD per study year", "setting": "[3]; all dabigatran users", "result": 0.28, "unit": "%"}, {"measurement": "% patients with an AMD diagnosis", "setting": "[3]; all dabigatran users, listed as Dabigatran", "result": 9.10, "unit": "%"}, {"measurement": "reduction of percent AMD per study year", "setting": "[3]; dabigatran vs control group", "result": "~35", "unit": "%"}, {"measurement": "reduction of percent patients with a wet AMD diagnosis", "setting": "[3]; dabigatran vs control group", "result": "~60", "unit": "%"}, {"measurement": "hazard ratio, time to first recorded diagnosis of unspecified AMD", "setting": "[3]; dabigatran vs matched controls, P<0.0001", "result": 0.63}, {"measurement": "Days to AMD, Mean", "setting": "[3]; dabigatran-exposed subjects, n 3810", "result": 562, "unit": "days"}, {"measurement": "Wet Days, Mean", "setting": "[3]; dabigatran-exposed subjects, n 38399", "result": 1047, "unit": "days"}, {"measurement": "Dry Days, Mean", "setting": "[3]; dabigatran-exposed subjects, n 41511", "result": 1011, "unit": "days"}, {"measurement": "AMD Days, Mean", "setting": "[3]; dabigatran-exposed subjects, n 41860", "result": 1007, "unit": "days"}, {"measurement": "odds ratio (OR) of AMD", "setting": "[3]; multivariable logistic regression controlling for age, sex, days in study, CI 0.55-0.61", "result": 0.58}, {"measurement": "effect on VEGF levels in RPE/choroid", "setting": "[4]; 6-day time point, angiogenesis phase, P=0.9", "result": "no effect"}, {"measurement": "effect on VEGF levels in RPE/choroid", "setting": "[4]; 23-day time point, repair phase, P=0.001", "result": "significantly reduced"}, {"measurement": "effect on C3d deposition", "setting": "[5]; CNV animals, repair phase", "result": "not reduced"}, {"measurement": "effect on C3d/C3dg and C3α′1 levels in RPE/choroid", "setting": "[5]; end of repair period (23 days), P<0.05", "result": "further elevated"}]}]}
